Measurements reported in publication PMC2074379 (British Journal of Cancer, 1996).
“Also recorded” adds a separate entry of the source. Residues, ends and D or L forms follow the SMILES beside them.

Experiments:
[1] = Stability of antagonist D and antagonist G in 1% (w/v) mouse liver homogenate; format: in vitro ADME; details: for amount of antagonist remaining after 1 h of incubation: 50 nmol in 1.0 ml 1% w/v mouse liver homogenate in PBS pH 7.4, 37°C, HPLC with fluorescence detection, corrected for extraction efficiency (94.4% D, 94% G), three experiments; for amount of metabolite accumulated after 1 h: from 50 nmol parent antagonist in 1% mouse liver homogenate, PBS pH 7.4, 37°C, HPLC fluorescence, extraction efficiency 94.4% (D metabolites), 94% (G metabolites) assumed, mean of three experiments
Description: British Journal of Cancer (1996) 73, 715-720 ? 1996 Stockton Press All rights reserved 0007-0920/96 $12.00 % Metabolism of the broad-spectrum neuropeptide growth factor antagonist: ID-Arg1, D-Phe5, D-Trp7'9, Leull"-substance P DA Jones', J Cummings', SP Langdon', AJ Maclellan', T Higgins2, E Rozengurt2 and JF Smyth' 'Imperial Cancer Research Fund, Medical Oncology Unit, Western General Hospital, Edinburgh EH4 2XU; 2Imperial Cancer Research Fund, PO Box 123, Lincoln's Inn Fields, London WC2A 3PX, UK. Summary Broad-spectrum neuropeptide growth factor antagonists, such as [D-Arg', D-Phe5, D-Trp7'9, Leu']substance P (antagonist D) and [Arg6, D-Trp7'9, NmePhe8]substance p(6- 11) (antagonist G), are currently being investigated as possible anti-tumour agents. […] Keywords: broad spectrum; neuropeptide; antagonist; metabolism Successful, long-term treatment of small-cell lung cancer (SCLC) remains a major therapeutic problem. […] The disease is characterised by its ability to secrete and to be growth stimulated by a variety of neuropeptide growth factors that include bombesin/gastrin- releasing peptide (GRP), vasopressin, bradykinin, cholecys- tokinin and neurotensin (Woll and Rozengut, 1989). […] These agents include [D- Arg'-D-Phe5-D-Trp7'9-Leu' 1]-substance P and [Arg6-D-Trp7'9- NmePhe8]-substance P(6-11) (code named antagonists D and G respectively) (Sethi et al., 1992). […] In the near future antagonist G will be the first of this new class of compound, broad- spectrum neuropeptide growth factor antagonists, to enter a phase I clinical trial for the potential treatment of SCLC. […] The research reported here describes the characterisation of the in vitro metabolism of antagonist D, comparing its metabolic stability to that of antagonist G, which we have previously reported (Jones et al., 1995). […] Materials and methods Antagonist D was purchased from Peninsula Laboratories (St Helens, UK), Antagonist G was supplied by Peptech (Europe) (Copenhagen, Denmark). H-D-Arg-Pro-Lys-Pro-D- Phe-Gln-D-Trp-Phe-D-Trp-Leu-Leu-OH (metabolite 1) and H-D-Arg-Pro-Lys-Pro-D-Phe-Gln-D-Trp-Phe-D-Trp-Leu-OH (metabolite 2) were prepared in-house using conventional Fmoc solid-phase peptide synthesis procediures. Reagents for peptide synthesis were purchased from NovaBiochem (UK) (Nottingham, UK). Acetic acid and ammonium acetate were from BDH Chemicals (Poole, UK). Methanol and acetoni- trile were high-performance liquid chromatography (HPLC) grade from Rathburn Chemicals (Walkerburn, UK). Tri- fluoroacetic acid was from Sigma Chemical (Poole, UK). All other chemicals Were of the highest grade commercially available and used without further purification. Water was deionised and bidistilled in a quartz glass still. HPLC The HPLC system used consisted of two 510 HPLC pumps, a 712 WISP autosampler, a TCM column heater (all Waters, Northwich, UK) and a model 1046A fluorescence detector (Hewlett Packard, Walborn, Germany). A Waters MAXIMA 820 computer package was used with a Waters system interface module to control the system operation and collect and integrate data. Separation was achieved on a Prime- sphere 5 gm (250 x 4.6 mm) column (Phenomenex, Maccles- field, UK) using isocratic elution with 45% (v/v) acetonitrile in 0.1% (v/v) aqueous triflouroacetic acid (TFA) at 450C. Detection of the peptides was by fluorescence (Excitation 233 nm Emission 395 nm).

[2] = ref Cummings et al., 1994; cited from earlier work
Description: (§1) British Journal of Cancer (1996) 73, 715-720 ? 1996 Stockton Press All rights reserved 0007-0920/96 $12.00 % Metabolism of the broad-spectrum neuropeptide growth factor antagonist: ID-Arg1, D-Phe5, D-Trp7'9, Leull"-substance P DA Jones', J Cummings', SP Langdon', AJ Maclellan', T Higgins2, E Rozengurt2 and JF Smyth' 'Imperial Cancer Research Fund, Medical Oncology Unit, Western General Hospital, Edinburgh EH4 2XU; 2Imperial Cancer Research Fund, PO Box 123, Lincoln's Inn Fields, London WC2A 3PX, UK. Summary Broad-spectrum neuropeptide growth factor antagonists, such as [D-Arg', D-Phe5, D-Trp7' ...

[3] = tested on: Swiss 3T3 cells stimulated by vasopressin; experiment: [3H]thymidine uptake by Swiss 3T3 cells after mitogenic stimulation by vasopressin; format: cell-based, murine; details: vasopressin 1 nM, 40 h, mean of duplicate samples
[4] = tested on: SCLC and non-SCLC cell lines; details: SCLC and non-SCLC cell lines in vitro; ref Reeve and Bleehan, 1994; cited from earlier work
Description: as §1

SCLC cells = details: ref Woll and Rozengurt, 1988; cited from earlier work
Description: as §1

[5] = tested on: SCLC xenografts (HC12 and ICR-SC112); details: ref Everard et al., 1993; cited from earlier work
Description: as §1

[6] = tested on: SCLC xenografts (WX322 and H69); details: WX322 and H69 xenografts in nude mice; ref Langdon et al., 1992; cited from earlier work
Description: as §1

[7] = tested on: non-SCLC, ovarian and cervical cancer cell lines; details: ref Everard et al., 1992; cited from earlier work
Description: as §1

[8] = tested on: Swiss 3T3 cells stimulated by bombesin; experiment: [3H]thymidine uptake by Swiss 3T3 cells after mitogenic stimulation by bombesin; format: cell-based, murine; details: bombesin 1 nM, insulin 1 µg/ml, 40 h, mean of duplicate samples
[9] = tested on: Swiss 3T3 cells stimulated by bradykinin; experiment: [3H]thymidine uptake by Swiss 3T3 cells after mitogenic stimulation by bradykinin; format: cell-based, murine; details: bradykinin 1 nM, insulin 1 µg/ml, 40 h, mean of duplicate samples
[10] = 1% (w/v) mouse liver homogenate in PBS (pH 7.4); details: 37?C, up to 1 h
human plasma = details: cited from earlier work
[11] = 2% w/v mouse liver homogenate in PBS (pH 7.4); details: 37?C, up to 2 h

Molecule: CC(C)C[C@H](NC(=O)[C@H](CC(C)C)NC(=O)[C@@H](Cc1c[nH]c2ccccc12)NC(=O)[C@H](Cc1ccccc1)NC(=O)[C@@H](Cc1c[nH]c2ccccc12)NC(=O)[C@H](CCC(N)=O)NC(=O)[C@@H](Cc1ccccc1)NC(=O)[C@@H]1CCCN1C(=O)[C@H](CCCCN)NC(=O)[C@@H]1CCCN1C(=O)[C@H](N)CCCN=C(N)N)C(N)=O [antagonist D, [D-Arg1, D-Phe5, D-Trp7,9, Leu11]substance P] (HELM PEPTIDE1{[dR].P.K.P.[dF].Q.[dW].F.[dW].L.L.[am]}$$$$V2.0)
- amount of antagonist remaining after 1 h of incubation [1]: 30.8 nmol
- stability relative to antagonist G ([1]; 1% mouse liver homogenate, 37°C (Figure 2)): almost twice as stable as antagonist G
- rate of disappearance relative to antagonist G ([1]; over the first 30 min, 1% mouse liver homogenate, 37°C): half the rate of antagonist G
- stability in human plasma [2]: stable

Molecule: CC(C)C[C@H](NC(=O)[C@H](CC(C)C)NC(=O)[C@@H](Cc1c[nH]c2ccccc12)NC(=O)[C@H](Cc1ccccc1)NC(=O)[C@@H](Cc1c[nH]c2ccccc12)NC(=O)[C@H](CCC(N)=O)NC(=O)[C@@H](Cc1ccccc1)NC(=O)[C@@H]1CCCN1C(=O)[C@H](CCCCN)NC(=O)[C@@H]1CCCN1C(=O)[C@H](N)CCCNC(=N)N)C(N)=O [antagonist D, [D-Arg1, D-Phe5, D-Trp7,9, Leu11]substance P] (HELM PEPTIDE1{[dR].P.K.P.[dF].Q.[dW].F.[dW].L.L.[am]}$$$$V2.0)
- IC50 ([3]; [3H]thymidine uptake, read-out: IC50 value, vasopressin stimulated growth): < 1000 nM
- induction of apoptosis [4]: induce apoptosis
- potency against SCLC cells in vitro relative to antagonist G (SCLC cells): equipotent to antagonist G
- activity against other SCLC xenografts in vivo [5]: activity
- growth of SCLC xenografts [6]: inhibit the growth
- in vitro activity against cancer cell lines [7]: activity

Molecule: CSCC[C@H](NC(=O)[C@H](CC(C)C)NC(=O)[C@@H](Cc1c[nH]c2ccccc12)NC(=O)[C@H](Cc1ccccc1)N(C)C(=O)[C@@H](Cc1c[nH]c2ccccc12)NC(=O)[C@@H](N)CCCNC(=N)N)C(N)=O [antagonist G, [Arg6, D-Trp7,9, NmePhe8]substance P(6-11)] (HELM PEPTIDE1{R.[dW].[meF].[dW].L.M.[am]}$$$$V2.0)
- amount of antagonist remaining after 1 h of incubation [1]: 21.1 nmol
- growth of SCLC xenografts [6]: inhibit the growth

Molecule: CC(C)C[C@H](NC(=O)[C@H](CC(C)C)NC(=O)[C@@H](Cc1c[nH]c2ccccc12)NC(=O)[C@H](Cc1ccccc1)NC(=O)[C@@H](Cc1c[nH]c2ccccc12)NC(=O)[C@H](CCC(N)=O)NC(=O)[C@@H](Cc1ccccc1)NC(=O)[C@@H]1CCCN1C(=O)[C@H](CCCCN)NC(=O)[C@@H]1CCCN1C(=O)[C@H](N)CCCNC(=N)N)C(=O)O [metabolite 1, H-D-Arg-Pro-Lys-Pro-D-Phe-Gln-D-Trp-Phe-D-Trp-Leu-Leu-OH] (HELM PEPTIDE1{[dR].P.K.P.[dF].Q.[dW].F.[dW].L.L}$$$$V2.0)
- amount of metabolite accumulated after 1 h [1]: 9.6 nmol
- antagonist activity with respect to bombesin (inhibition of [3H]thymidine uptake) [8]: retained none of the antagonist properties
- vasopressin antagonist activity (inhibition of [3H]thymidine uptake) ([3]; insulin 1 µg/ml): inactive
- antagonist activity with respect to bradykinin (inhibition of [3H]thymidine uptake) [9]: retained none of the antagonist properties

Molecule: CC(C)C[C@H](NC(=O)[C@@H](Cc1c[nH]c2ccccc12)NC(=O)[C@H](Cc1ccccc1)NC(=O)[C@@H](Cc1c[nH]c2ccccc12)NC(=O)[C@H](CCC(N)=O)NC(=O)[C@@H](Cc1ccccc1)NC(=O)[C@@H]1CCCN1C(=O)[C@H](CCCCN)NC(=O)[C@@H]1CCCN1C(=O)[C@H](N)CCCNC(=N)N)C(=O)O [metabolite 2, H-D-Arg-Pro-Lys-Pro-D-Phe-Gln-D-Trp-Phe-D-Trp-Leu-OH] (HELM PEPTIDE1{[dR].P.K.P.[dF].Q.[dW].F.[dW].L}$$$$V2.0)
- amount of metabolite accumulated after 1 h [1]: 12.3 nmol
- antagonist activity with respect to bombesin (inhibition of [3H]thymidine uptake) [8]: retained none of the antagonist properties
- antagonist activity with respect to bradykinin (inhibition of [3H]thymidine uptake) [9]: retained none of the antagonist properties

Molecule: H-Arg-D-Trp-N"'Phe-D-Trp-Leu-Met-NH,
- cleaved bond [10]: Met-NH2, major

Molecule: H-D-Arg-Pro-Lys-Pro-D-Phe-GIn-D-Trp-Phe-D-Trp-Leu-Leu-NH2
- not cleaved (human plasma): stable in human plasma
- cleaved bond [11]: Leu11-NH2, major; also recorded: Leu10-Leu11, major
- cleaved bond [10]: Leu11-NH2, major; also recorded: Leu10-Leu11, major
